Results: patent US10538521B2, “Pyrimidine derivative having antimalarial activity” (CARNA BIOSCIENCES, INC., priority 2016, dated 2020)
pIC50: −log10 of the molar value. Structures can show the parent of a compound that is named as a salt. Where two headings read alike, the source gives them in different places.

How the values were obtained:
[1] = test system: FCR3 strain, a drug sensitive strain of Plasmodium falciparum; assay: In vitro antimalarial assay (p-LDH, Malstat), FCR3 strain; type: cell-based; conditions: read-out: Antimalarial activity (IC50 value), Strain FCR3
Text: (§1) For the evaluation of the antimalarial activity of the compound of the present invention, K1 strain, a drug resistant strain of Plasmodium falciparum, and FCR3 strain, a drug sensitive strain thereof, which were generous gift from Professor Kiyoshi Kita of the Graduate School of Medicine and Faculty of Medicine, the University of Tokyo, were used to measure the in vitro antimalarial activity of the compound against those Plasmodium species according to the method established by Otoguro et al. (Otoguro, K., Kohana, A., Manabe, C., Ishiyama, A., Ui, H., Shiomi, K., Yamada, H. & Omura, S.: Potent antimalarial activity of polyether antibiotic, X-206. J. Antibiot., 54: 658-663, (2001)).
(§2) The parasites were grown based on a slightly modified method from the original method reported by Trager and Jensen (Trager, W. and Jensen, J.: Human malaria parasites in continuous culture, Science, 193: 673-677, (1976)), and those which were maintained and sub-cultured by the method were used. More specifically, in a culture dish, erythrocytes infected with the protozoa, which had been sub-cultured using a RPMI 1640 medium to which 10% human plasma had been added and fresh human erythrocytes, were diluted (hematocrit value: 2 to 5%, parasitaemia: 0.25 to 1%), and were cultured at 37° C. in a mixed gas of 3% O2-4% CO2-93% N2, and continuously cultured while changing the medium and adding fresh erythrocytes at 2- or 3-day intervals.
(§3) A drug susceptibility test was performed by modifying the method established by Desjardins et al. (Desjardins, R. E., Canfield, C. J., Haynes, D. E. and Chulay, J. D.: Quantitative assessment of antimalarial activity in vitro by a semiautomated microdilution technique. Antimicrob. Agents Chemother., 16: 710-718 (1979)). More specifically, 190 μL of a suspension of protozoa which had been precultured (hematocrit value: 2%, parasitaemia: 0.5 or 1%) and 10 μL of a solution of a test compound (5% DMSO solution) serially diluted so that the final concentration was 12.5 to 0.0001 μM were put in each well of a 96-well plate, and after mixing, the same was cultured for 72 hours in the above mixed gas.
(§4) For the measurement of the growth of protozoa, the method established by Makler (Makler, M. T., Rise, J. M., Williams, J. A., Bancroft, J. E., Piper, R. C., Gibbins, B. L. and Hinrichs, D. J.: Parasite lactate dehydrogenase as an Assay for Plasmodium falciparum drug sensitivity, Am. J. Med. Hyg., 48: 739-741 (1993)) was modified to colorimetrically determine parasite lactate dehydrogenase (p-LDH) using Malstat reagent (Flow Inc., USA).
(§5) More specifically, 72 hours after the culture, the 96-well plate was directly frozen at −20° C. for 18 hours and melted at 37° C. to hemolyze the protozoan-infected erythrocytes and destroy the protozoa to prepare a crude enzyme solution. 100 μL of Malstat reagent and 20 μL of the crude enzyme solution were added to and mixed in each well of another 96-well plate, and after reacting for 15 minutes at room temperature, 20 μL of a nitroblue tetrazolium 2 mg/mL phenazine ethosulfate 0.1 mg/mL=1:1 solution was added to the respective wells, and reaction was performed in dark conditions at room temperature for 2 hours.
(§6) The absorbance of the blue formazan product formed by the reaction was measured at a measurement wavelength of 655 nm by using a microplate reader (Labsystems, Finland) to colorimetrically determine the growth of the protozoa. The 50% growth inhibitory concentration for the protozoa of the compound (IC50 value) was determined based on the concentration-response curve of the compound.

[2] = test system: K1 strain, a drug resistant strain of Plasmodium falciparum; assay: In vitro antimalarial assay (p-LDH, Malstat), K1 strain; type: cell-based; conditions: read-out: Antimalarial activity (IC50 value), Strain K1
Text: as §1, §2, §3, §4, §5, §6

[3] = P. falciparum FCR3 (drug sensitive), 72 h culture, p-LDH readout
[4] = P. falciparum K1 (drug resistant), 72 h culture, p-LDH readout

SMILES	pIC50 [1, 3]	pIC50 [2, 4]	pIC50 ([1]; FCR3, 72 h)	pIC50 ([2]; K1, 72 h)
Cc1ccnc(Nc2nc(Nc3ccn4ccnc4c3)cc(N3CCN(C)[C@@H](C)C3)n2)c1 [Example 35, (S)-6-(3,4-dimethylpiperazin-1-yl)-N4-(imidazo[1,2-a]pyridin-7-yl)-N2-(4-methylpyridin-2-yl)pyrimidine-2,4-diamine]	5.00 to 6.00	5.00 to 6.00		
Cc1cc(Nc2nc(Nc3ccn4ccnc4c3)cc(N3CCCCC3)n2)ncc1F [Example 204, N2-(5-fluoro-4-methylpyridin-2-yl)-N4-(imidazo[1,2-a]pyridin-7-yl)-6-(piperidin-1-yl) pyrimidine-2,4-diamine]	6.00 to 7.00	6.00 to 7.00		
Cc1cc(C)nc(Nc2nc(Nc3ccn4ccnc4c3)cc(NN3CCCCC3)n2)c1 [Example 198, N2-(4,6-dimethylpyridin-2-yl)-N4-(imidazo[1,2-a]pyridin-7-yl)-N6-(piperidin-1-yl)pyrimidine-2,4,6-triamine]	> 7.00	6.00 to 7.00		
CCc1cc(C)cc(Nc2nc(Nc3ccn4ccnc4c3)cc(N3CCCCC3)n2)n1 [Example 189, N2-(6-ethyl-4-methylpyridin-2-yl)-N4-(imidazo[1,2-a]pyridin-7-yl)-6-(piperidin-1-yl)pyrimidine-2,4-diamine]	> 7.00	> 7.00		
c1cn2ccc(Nc3cc(N4CCOCC4)nc(Nc4ccc(OC5CCCCC5)nc4)n3)cc2n1 [Example 81, N2-(6-(cyclohexyloxy)pyridin-3-yl)-N4-(imidazo[1,2-a]pyridin-7-yl)-6-morpholinopyrimidine-2,4-diamine]	6.00 to 7.00	6.00 to 7.00		
c1ccc(Oc2ccc(Nc3nc(Nc4ccn5ccnc5c4)cc(N4CCOCC4)n3)cn2)cc1 [Example 90, N4-(imidazo[1,2-a]pyridin-7-yl)-6-morpholino-N2-(6-phenoxypyridin-3-yl)pyrimidine-2,4-diamine]	> 7.00	6.00 to 7.00		
CCCCc1cc(OC)cc(Nc2nc(Nc3ccn4ccnc4c3)cc(N3CCCCC3)n2)n1 [Example 197, N2-(6-butyl-4-methoxypyridin-2-yl)-N4-(imidazo[1,2-a]pyridin-7-yl)-6-(piperidin-1-yl) pyrimidine-2,4-diamine]	6.00 to 7.00	6.00 to 7.00		
Fc1cncc(Nc2nc(Nc3ccn4ccnc4c3)cc(N3CCOCC3)n2)c1 [Example 6, N2-(5-Fluoropyridin-3-yl)-N 4-(imidazo[1,2-a]pyridin-7-yl)-6-morpholinopyrimidine-2,4-diamine]	6.00 to 7.00	6.00 to 7.00		
Cc1cc(C)nc(Nc2nc(Nc3ccn4ccnc4c3)cc(N3CCN(C)CC3)n2)c1 [Example 30, N2-(4,6-dimethylpyridin-2-yl)-N4-(imidazo[1,2-a]pyridin-7-yl)-6-(4-methylpiperazin-1-yl) pyrimidine-2,4-diamine]	> 7.00	> 7.00		
CCc1ccnc(Nc2nc(Nc3ccn4ccnc4c3)cc(N3CC[C@H](O)C3)n2)c1 [Example 117, (S)-1-(2-((4-ethylpyridin-2-yl)amino)-6-(imidazo[1,2-a]pyridin-7-ylamino)pyrimidin-4-yl)pyrrolidin-3-ol]	> 7.00	> 7.00		
Cc1cc(C)nc(Nc2nc(Nc3ccn4ccnc4c3)cc(N3CCC(N4CCOCC4)C3)n2)c1 (stereo not drawn) [Example 149, N2-(4,6-dimethylpyridin-2-yl)-N4-(imidazo[1,2-a]pyridin-7-yl)-6-(3-morpholinopyrrolidin-1-yl)pyrimidine-2,4-diamine]	> 7.00	> 7.00		
CCOc1cc(Nc2ccn3ccnc3c2)nc(Nc2cccc(C)n2)n1 [Example 29, 6-ethoxy-N4-(imidazo[1,2-a]pyridin-7-yl)-N2-(6-methylpyridin-2-yl)pyrimidine-2,4-diamine]	6.00 to 7.00	6.00 to 7.00		
Cc1ccc(Nc2nc(Nc3ccn4ccnc4c3)cc(N3CCN(C)[C@@H](C)C3)n2)nc1 [Example 37, (S)-6-(3,4-dimethylpiperazin-1-yl)-N4-(imidazo[1,2-a]pyridin-7-yl)-N2-(5-methylpyridin-2-yl)pyrimidine-2,4-diamine]	5.00 to 6.00	5.00 to 6.00		
Cc1cc(C)nc(Nc2nc(N)cc(Nc3ccn4ccnc4c3)n2)c1 [Example 58, N2-(4,6-dimethylpyridin-2-yl)-N4-(imidazo[1,2-a]pyridin-7-yl)pyrimidine-2,4,6-triamine]	> 7.00	> 7.00		
Cc1cc(C)nc(Nc2nc(Nc3ccn4ccnc4c3)cc(N3CCN(C)[C@@H](C)C3)n2)c1 [Example 45, (S)-6-(3,4-dimethylpiperazin-1-yl)-N2-(4,6-dimethylpyridin-2-yl)-N4-(imidazo[1,2-a]pyridin-7-yl)pyrimidine-2,4-diamine]	> 7.00	5.00 to 6.00		
c1cc(Nc2nc(Nc3ccn4ccnc4c3)cc(N3CCCC3)n2)nc(OCCN2CCOCC2)c1 [Example 154, N4-(imidazo[1,2-a]pyridin-7-yl)-N2-[6-(2-morpholinoethoxy)pyridin-2-yl]-6-(pyrrolidin-1-yl)pyrimidine-2,4-diamine]	> 7.00	> 7.00		
CC(C)(C)Oc1ccc(Nc2nc(Nc3ccn4ccnc4c3)cc(N3CCOCC3)n2)cn1 [Example 63, N2-(6-(tert-butoxy)pyridin-3-yl)-N4-(imidazo[1,2-a]pyridin-7-yl)-6-morpholinopyrimidine-2,4-diamine]	6.00 to 7.00	6.00 to 7.00		
CC(C)Oc1ccc(Nc2nc(Nc3ccn4ccnc4c3)cc(N3CCCCC3)n2)cn1 [Example 55, N4-(Imidazo[1,2-a]pyridin-7-yl)-N2-(6-isopropoxypyridin-3-yl)-6-(piperidin-1-yl) pyrimidine-2,4-diamine]	6.00 to 7.00	5.00 to 6.00		
CC(C)(C)c1ccnc(Nc2nc(Nc3ccn4ccnc4c3)cc(N3CCOCC3)n2)c1 [Example 67, N2-(4-(tert-butyl)pyridin-2-yl)-N4-(imidazo[1,2-a]pyridin-7-yl)-6-morpholinopyrimidine-2,4-diamine]	6.00 to 7.00	6.00 to 7.00		
c1cn2ccc(Nc3cc(N4CCOCC4)nc(Nc4ccc(OC5CCOCC5)nc4)n3)cc2n1 [Example 82, N4-(imidazo[1,2-a]pyridin-7-yl)-6-morpholino-N2-(6-((tetrahydro-2H-pyran-4-yl)oxy)pyridin-3-yl)pyrimidine-2,4-diamine]	6.00 to 7.00	6.00 to 7.00		
CCc1ccnc(Nc2nc(Nc3ccn4ccnc4c3)cc(N3CCC(C)(C)CC3)n2)c1 [Example 99, 6-(4,4-dimethylpiperidin-1-yl)-N2-(4-ethylpyridin-2-yl)-N4-(imidazo[1,2-a]pyridin-7-yl)pyrimidine-2,4-diamine]	6.00 to 7.00	6.00 to 7.00		
Fc1cccnc1Nc1nc(Nc2ccn3ccnc3c2)cc(N2CCOCC2)n1 [Example 20, N2-(3-Fluoropyridin-2-yl)-N4-(imidazo[1,2-a]pyridin-7-yl)-6-morpholinopyrimidine-2,4-diamine]	6.00 to 7.00	6.00 to 7.00		
Cc1cccc(Nc2nc(Nc3ccn4ccnc4c3)cc(N3CCOCC3)n2)n1 [Example 10, N4-(Imidazo[1,2-a]pyridin-7-yl)-N2-(6-methylpyridin-2-yl)-6-morpholinopyrimidine-2,4-diamine]	> 7.00	> 7.00		
CC(C)c1cccc(Nc2nc(Nc3ccn4ccnc4c3)cc(N3CCOCC3)n2)n1 [Example 123, N4-(imidazo[1,2-a]pyridin-7-yl)-N2-(6-isopropylpyridin-2-yl)-6-morpholinopyrimidine-2,4-diamine formate]			> 7.00	6.00 to 7.00
